The text below walks through data of patent publication US20250213516A1, “Prophylactic Methods For Treating ALS” (BioJiva LLC, priority 2022, published 2025).

For series [1], the system named is patients in the incipient stage of ALS. Kind of series: Clinical study, ALSFRS-R scoring of patients in the incipient stage of ALS. The format is in vivo, human. The following applies: for patients showing a better rate of decline (cut-off −11 change from baseline in ALSFRS-R): incipient stage, scored at 48 weeks. The text has this: This rating scale evaluated 12 different components on a 0 (worse) to 4 (best) scale where the components are speech, salivation, swallowing, handwriting, […], food handling, dressing and hygiene, turning in bed, […], climbing stairs, dyspnea, orthopnea, and respiratory insufficiency. As used herein, patients diagnosed with ALS are first evaluated to determine their natural history which measures the extent of loss of muscular functional due to the disease prior to initiation of therapy.
In this example, 41 patients diagnosed with ALS were tested to ascertain their natural history. Of these 41 patients, 23 scored above 38 points in the ALSFRS-R scoring test and were assigned as having incipient ALS. […] Each cohort received three 1 gram pills t.i.d. (“.three times a day”) at breakfast, lunch and dinner for a total of 9 pills.
After 24 weeks, each patient in each cohort were retested using the ALSFRS-R scoring test. The scores were then averaged for each cohort and the results are found in FIG. 1.
Each cohort received three 1 gram pills t.i.d. (“.three times a day”) at breakfast, lunch and dinner for a total of 9 pills.
After 48 weeks, each patient in each cohort were retested using the ALSFRS-R scoring test. The scores were then averaged.

Series [2] relates to patients in the accelerated stage of ALS. Kind of series: Clinical study, ALSFRS-R scoring of patients in the accelerated stage of ALS. The format is in vivo, human. The settings on record: 9 g/day ethyl ester vs placebo, 24 weeks, FIG. 2. The text has this:
As used herein, the term “accelerated stage of ALS” refers to patients whose diseases progression has evidenced a more substantial loss of muscular functionality. For the purposes of this application, such is identified as having a natural history score of 37 or less.
In this example, the same 41 patients diagnosed with ALS used in Comparative Example 1 were used. […] Each cohort received three 1 gram pills t.i.d. at breakfast, lunch and dinner for a total of 9 pills.
After 24 weeks, each patient in each cohort were retested using the ALSFRS-R scoring test. The scores were then averaged for each cohort and the results are found in FIG. 2.

The subject of another series is inflammation model. Kind of series: Inflammation model.
The conditions of series [3]: average diet, about 14 grams linoleic acid per day; cited from earlier work.

Entries after “also recorded” stand apart in the source; their conditions may differ.

On to `[2H]C([2H])(/C=C\CCCCC)/C=C\CCCCCCCC(=O)OCC`, for which the “change in ALSFRS-R scores (loss of functionality), cohort average” value in series [1] (incipient stage ALS, about 9 g/day ethyl ester (8.64 g acid) vs placebo, 24 weeks, FIG. 1) is “do not evidence a significant change; also recorded: minimal loss of functionality”. Besides, the “loss of muscular functionality (ALSFRS-R, cohort average)” value in series [2] is reported as “substantially less loss of muscular functionality”.

As for `[2H]C([2H])(/C=C\CCCCC)/C=C\C([2H])([2H])/C=C\C([2H])([2H])/C=C\CCCC(=O)O` [7,7,10,10,13,13-D6-arachidonic acid], in the series on inflammation model, the “activity relative to 13,13-D2-arachidonic acid” value is on record as “a little more than twice as active”.

Turning to `[2H]C([2H])(/C=C\CCCCC)/C=C\CCCCCCCC(=O)O` [11,11-D2-linoleic acid], the “patients showing a better rate of decline (cut-off −11 change from baseline in ALSFRS-R)” value in series [1] (placebo for 24 weeks, then 8.64 g/day for 24 weeks) was 40%; in series [1] (treated with 8.64 g/day for 48 weeks) it was 70%.

Take `CCCCC/C=C\C/C=C\CCCCCCCC(=O)O` [linoleic acid]: in series [3], the “portion of linoleic acid consumed hepatically converted to arachidonic acid” value is given as “about 10%”.
